Data as given in paper PMC11218446, “Antibacterial efficacy and membrane mechanism of action of the Serratia-derived non-ionic lipopeptide, serrawettin W2-FL10” (Microbiology Spectrum, 2024).

How the values were obtained:
[1] = test system: Chinese hamster ovarian (CHO) cell line; experiment: Mammalian cell cytotoxicity, MTT assay; details: CHO cells, MTT, 48 h; reference drug
Protocol: To determine the biocompatibility of W2-FL10 as a potential therapeutic agent, the in vitro cytotoxicity of W2-FL10 against the CHO cell line ([50]) was determined over 48 h by the Drug Discovery and Development Centre at the University of Cape Town, as previously described by Mosmann ([51]). Briefly, W2-FL10 was prepared to a 10 mM stock solution in 100% DMSO and dilutions were prepared in growth media. The CHO cell line density of 10^5 cells/well in 96-well plates and allowed to attach for 24 h. Thereafter, the compound was added to the 96-well plates at various concentrations from 50 µM down to 16 nM and incubated for a further 48 h. At 44 h, MTT was added to the wells, and the plates were read 4 h later at 540 nm on a spectrophotometer. […] Finally, cell inhibition was plotted against concentration and the 50% lethal concentration (LC50) parameter and a minimum lethal concentration (MLC90) were obtained as described for the dose responses against bacterial targets above (equation 1).

[2] = test system: methicillin-resistant S. aureus (MRSA); details: cited from earlier work
From the text: The antimicrobial activity of the serrawettin W2-FI10 analog (i.e., C10H18O2-Leu-Ser-Thr-Phe-Ile), has been extensively investigated.

Escherichia coli = details: cited from earlier work
From the text: (§1) Key parameters contributing to the antimicrobial activity of lipopeptides include hydrophobicity and net charge ([5], [24]). Serrawettin W2-FL10 is a relatively small and moderately amphipathic lipopeptide with a neutral charge.

L. monocytogenes B73 = details: cited from earlier work
From the text: as §1

**Q.** Which LC50 [1] does the source give for CC[C@H]1CN2CCc3cc(OC)c(OC)cc3[C@@H]2C[C@@H]1C[C@H]1NCCc2cc(OC)c(OC)cc21 [emetine, reference compound] here?
**A.** Its LC50 is “approximately 40 nM”.

**Q.** For “C10H18O2-Leu-Ser-Thr-Phe-Ile (lariat or depsi) [W2-FI10, serrawettin W2-FI10, serrawettin W2 analog, C10H18O2-Leu-Ser-Thr-Phe-Ile]”, which “concentration with inhibitory activity” value [2] is on record?
**A.** The value was 4 µg/mL.

**Q.** For PGla, which ICF (Escherichia coli) is on record?
**A.** Its ICF is 2.5.

**Q.** With gramicidin S as the compound, how does the ICF (Escherichia coli) read?
**A.** The ICF was 5.7.

**Q.** With tyrocidine C as the compound, how does the ICF (L. monocytogenes B73) read?
**A.** Its ICF is 1.9.

**Q.** What about the MIC (L. monocytogenes B73) of the same compound?
**A.** The MIC was 13 µM.
